Each structure is given as a SMILES string. Structures can show the parent of a compound that is named as a salt.

The values that follow come from US11744830B2, “Ameliorative agent for cytokine release syndrome and so on” (TORII PHARMACEUTICAL CO., LTD., priority 2018, dated 2023).

For experiment [1], the system named is IL-6 production from PBMCs. As to the kind of experiment: LPS stimulation-induced IL-6 production in PBMCs. In kind it is cell-based. To be noted: Homo sapiens, PBMC, 72 h, LPS 3 ng/mL, 3 days. The procedure: Cryopreserved PBMCs were quickly thawed in a 37° C. thermostat and added to a tube containing medium. After centrifugation (at room temperature at 300 g for 10 minutes) to remove the supernatant, the cells were suspended again in the medium (10 mL), followed by counting the number of viable cells. After centrifugation (at room temperature at 300 g for 10 minutes) to remove the supernatant, the medium was added to suspend the cells at 1×10^6 cells/mL. This cell suspension was seeded in a 96-well plate in a volume of 100 μL/well (1×10^5 cells/well). […] The cells were cultured in a CO2 incubator for 3 days to collect the culture supernatants.
The collected culture supernatants were quantified for IL-6 using Human IL-6 DuoSet ELISA.

Experiment [2] has as its system IFN-γ production from PBMCs. As to the kind of experiment: T-cell stimulation bead- and LPS stimulation-induced CRS toxicity evaluation system in PBMCs: IFN-γ. The experiment is classed as cell-based, human. To be noted: for IC50: Homo sapiens, PBMC, 72 h, PBMCs, CD3/CD28 + LPS, 3 days. The procedure:
(§1) Cryopreserved PBMCs were quickly thawed in a 37° C. thermostat and added to a tube containing medium. After centrifugation (at room temperature at 300 g for 10 minutes) to remove the supernatant, the cells were suspended again in the medium (10 mL), followed by counting the number of viable cells. After centrifugation (at room temperature at 300 g for 10 minutes) to remove the supernatant, the medium was added to suspend the cells at 1×10^6 cells/mL. This cell suspension was seeded in a 96-well plate in a volume of 100 μl/well (1×10^5 cells/well) and allowed to stand in a CO2 incubator for 1 to 2 hours.
(§2) The cells were cultured in a CO2 incubator for 3 days to collect the culture supernatants.
(§3) The collected culture supernatants were quantified for IFN-γ and IL-6 using Human IFN-γ DuoSet ELISA and Human IL-6 DuoSet ELISA.

Experiment [3] concerns IL-6 production from PBMCs. As to the kind of experiment: T-cell stimulation bead- and LPS stimulation-induced CRS toxicity evaluation system in PBMCs: IL-6. The experiment is classed as cell-based, human. The conditions noted are these: CD3/CD28 + LPS; for IC50: Homo sapiens, PBMC, 72 h, 3 days. The procedure:
as §1, §2, §3

For experiment [4], the system named is IL-6 production in CD4^+ T cell-depleted PBMCs. As to the kind of experiment: T-cell stimulation bead- and LPS stimulation-induced CRS toxicity evaluation system in CD4^+ T cell-depleted PBMCs: IL-6. The conditions noted are these: for IC50: Homo sapiens, 72 h, 3 days. The experiment is classed as cell-based, human. The procedure:
Cryopreserved human PBMCs were quickly thawed in a 37° C. thermostat and added to a tube containing medium. After centrifugation (at room temperature at 300 g for 10 minutes) to remove the supernatant, the cells were suspended again in the medium (10 mL), followed by counting the number of viable cells. The remainder of the cell suspension was centrifuged (at room temperature at 300 g for 10 minutes) to remove the supernatant, followed by addition of MACS Buffer in a volume of 80 μL and Human CD4 MicroBeads in a volume of 20 μL per 1×10^7 cells to suspend the cells. After being allowed to stand on ice for 15 minutes, the cell suspension was diluted with MACS Buffer (2 mL) and centrifuged (at room temperature at 300 g for 10 minutes) to remove the supernatant. MACS Buffer (500 μL) was added to the tube, and the cells were suspended and then applied to a separatory column to separate CD4^− cells (a pass-through fraction of CD4^+ cells). The CD4^− cell fraction was diluted to 15 mL with the medium and then centrifuged (at room temperature at 300 g for 10 minutes) to remove the supernatant, and the cells were then suspended again in the medium (1 mL), followed by counting the number of viable cells. The cell suspension adjusted with the medium to 1×10^6 cells/mL was seeded in a 96-well plate in a volume of 100 μl/well (1×10^5 cells/well) and allowed to stand in a CO2 incubator for 1 to 2 hours.
as §3

Experiment [5] deals with killer activity of CAR-T cells. As to the kind of experiment: Killer activity of CAR-T cells (CAR-T cells, target cells and CD14^+ cells, luciferase). In kind it is cell-based, human. The conditions noted are these: 2 days. From the text: FMC63 scFv, the hinge, transmembrane and cytoplasmic domains of CD28 and the cytoplasmic domain of CD3-ζ were used to construct anti-CD19 CAR on the basis of the method of Kochenderfer, et al.^15). The sequence was obtained from GenBank (HM852952) and an IDT codon optimization tool (http://sg.igtdna.com/CodonOpt) was used to remove BamHI recognition sequences within FMC63. The optimized FMC63-28z sequence was chemically synthesized and amplified by polymerase chain reaction (PCR) with the following primer set.
The PCR product was inserted into the multicloning site (EcoRI and BamHI) of lentivirus plasmid CSII-EF-MCS-2A-eGFP by using an In-Fusion HD cloning kit to obtain CSII-EF-FMC63-28z-2A-eGFP. To prepare a lentivirus vector, CSII-EF-FMC63-28z-2A-eGFP and a packaging plasmid (pMDLg/p.RRE, pRSV-rev and pMD.G) were co-transfected into Lenti-X293T cells. The prepared lentivirus vector was infected into peripheral blood mononuclear cells stimulated with anti-CD3 antibody, anti-CD28 antibody and IL-2, followed by FACS sorting to obtain a CD3-positive and eGFP-positive fraction as CAR-T cells.
On the basis of the method of Kochenderfer, et al.^15), the open reading frame of human CD19 was synthesized and amplified by PCR with the following primers. […]
Subsequently, luciferase activity was determined by detection of emission intensity with an EnSpire 2300.

The next experiment relates to IL-8 production. As to the kind of experiment: CRS toxicity evaluation system using CAR-T cells: IL-8. In kind it is cell-based, human. To be noted: for IC50: Homo sapiens, Monocyte, CAR-T cells, target cells and monocytes, 72 hours. The procedure: (§4) The supernatants were collected at 72 hours after the initiation of culture, and various cytokines in each supernatant were measured by FACS multiplex assay.

The subject of a further experiment is TNF-α production. As to the kind of experiment: CRS toxicity evaluation system using CAR-T cells: TNF-α. To be noted: for IC50: Homo sapiens, Monocyte, CAR-T cells, target cells and monocytes, 72 hours. The experiment is classed as cell-based, human. The procedure:
as §4

The test system of another experiment is IL-1β production. Description: CRS toxicity evaluation system using CAR-T cells: IL-1β. The conditions noted are these: for IC50: Homo sapiens, Monocyte, CAR-T cells, target cells and monocytes, 72 hours. The experiment is classed as cell-based, human. The procedure: as §4
The mark [6] stands for this setting: CRS toxicity evaluation system using CAR-T cells.

Broadly, the IC50 is the midpoint of a concentration-inhibition curve. As for `C[C@]12C=CC(=O)C=C1CC[C@@H]1[C@@H]2[C@@H](O)C[C@@]2(C)[C@H]1CC[C@]2(O)C(=O)CO` [PSL, Prednisolone], the concentration for half-maximal inhibition (IC50) was 176 nM in experiment [1]; 53 nM in experiment [2]; 3570 nM in experiment [3]; more than 30000 nM in experiment [4] (CD3/CD28 + LPS); more than 100000 nM with IL-8 production; more than 100000 nM with TNF-α production. This compound also had a 50% inhibitory concentration (IC50) in the experiment on IL-1β production of more than 100000 nM. Besides, the “suppression of IFN-γ production versus IL-6 production” value in experiment [2] (PBMCs co-stimulated with T-cell stimulation beads and LPS) is “more strongly suppressed IFN-γ production than IL-6 production”. The “suppression of IL-6 production” value in experiment [4] (T-cell stimulation beads and LPS) is given as “did not suppress”. Besides, in experiment [5], the “effect on the killer activity of CAR-T cells” value is reported as “suppressive effect on the killer activity of CAR-T cells in a concentration-dependent manner”. The “suppressive effect on IL-8 production” value in the experiment on IL-8 production (setting [6]) is listed as “no suppressive effect”. For the same compound, the “suppressive effect on TNF-α” value in the experiment on TNF-α production (setting [6]) is given as “no suppressive effect”. For the same compound, in the experiment with IL-1β production (setting [6]), the “suppressive effect on IL-1β” value is on record as “no suppressive effect”.

In the case of `CCOC(=O)[C@H](Cc1ccccc1)NC(=O)c1cc(Cl)c(OCCN2CCN(C)CC2)c(Cl)c1O` [JTE-607, (−)-ethyl N-{3,5-dichloro-2-hydroxy-4-[2-(4-methylpiperazin-1-yl)ethoxy]benzoyl}-L-phenylalaninate dihydrochloride], the 50% inhibitory concentration (IC50) in experiment [1] was found to be 17.7 nM; in experiment [2], 50.1 nM; in experiment [3] it was 40.4 nM; in experiment [4] (CD3/CD28 + LPS), 42.2 nM; in the experiment on IL-8 production, 154 nM; in the experiment with TNF-α production, 413 nM. In the experiment with IL-1β production, this compound displayed an IC50 of 359 nM. The “Ratio (IL-6/IFN-γ) of IC50 values” in experiment [3] worked out at 0.81; in experiment [4] (CD3/CD28 + LPS), 0.52. For the same compound, the “effect on the killer activity of CAR-T cells” value in experiment [5] is listed as “did not affect”.
